PubChem BioAssay (NCI)
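How tested: cells in 96-well plates exposed to compound for 48 hours at five concentrations. At the GI50, growth is halved. TGI is the concentration that stops growth completely.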

How the values were obtained:
Experiment in all cases: growth of human tumour cells (NCI), 48 h
[1] = system: NCI-H23 lung
[2] = system: NCI-H460 lung
[3] = system: NCI-H522 lung
[4] = system: NCI/ADR-RES ovarian
[5] = system: OVCAR-3 ovarian
[6] = system: OVCAR-4 ovarian
[7] = system: OVCAR-5 ovarian
[8] = system: OVCAR-8 ovarian
[9] = system: PC-3 prostate
[10] = system: RPMI-8226 leukemia
[11] = system: SF-268 CNS
[12] = system: SF-295 CNS
[13] = system: SF-539 CNS
[14] = system: SK-MEL-2 melanoma
[15] = system: SK-MEL-28 melanoma
[16] = system: SK-MEL-5 melanoma
[17] = system: SK-OV-3 ovarian
[18] = system: SN12C renal
[19] = system: SNB-19 CNS
[20] = system: SNB-75 CNS
[21] = system: SR leukemia
[22] = system: SW-620 colon
[23] = system: T-47D breast
[24] = system: TK-10 renal
[25] = system: U251 CNS
[26] = system: UACC-257 melanoma
[27] = system: UACC-62 melanoma
[28] = system: UO-31 renal

SMILES: Fc1ccc(Nc2nc3nonc3nc2Nc2ccc(F)cc2)cc1
- GI50 [1]: 264 nM
- TGI [1]: 852 nM
- GI50 [2]: 319 nM
- TGI [2]: 10500 nM
- GI50 [3]: 194 nM
- TGI [3]: 561 nM
- GI50 [4]: 329 nM
- TGI [4]: 2760 nM
- GI50 [5]: 371 nM
- TGI [5]: 11000 nM
- GI50 [6]: 294 nM
- TGI [6]: 10900 nM
- GI50 [7]: 709 nM
- TGI [7]: 13800 nM
- GI50 [8]: 402 nM
- TGI [8]: 15400 nM
- GI50 [9]: 280 nM
- TGI [9]: 11200 nM
- GI50 [10]: 207 nM
- TGI [10]: 697 nM
- GI50 [11]: 505 nM
- TGI [11]: 14300 nM
- GI50 [12]: 271 nM
- TGI [12]: 1260 nM
- GI50 [13]: 486 nM
- TGI [13]: 11600 nM
- GI50 [14]: 285 nM
- TGI [14]: 807 nM
- GI50 [15]: 505 nM
- TGI [15]: 11000 nM
- GI50 [16]: 229 nM
- TGI [16]: 702 nM
- GI50 [17]: 244 nM
- TGI [17]: 852 nM
- GI50 [18]: 301 nM
- TGI [18]: 3010 nM
- GI50 [19]: 386 nM
- TGI [19]: 16100 nM
- GI50 [20]: 399 nM
- TGI [20]: 3380 nM
- GI50 [21]: 447 nM
- TGI [21]: 2750 nM
- GI50 [22]: 573 nM
- TGI [22]: 14200 nM
- GI50 [23]: 221 nM
- TGI [23]: 775 nM
- GI50 [24]: 435 nM
- TGI [24]: 6740 nM
- GI50 [25]: 387 nM
- TGI [25]: 10800 nM
- GI50 [26]: 401 nM
- TGI [26]: 3160 nM
- GI50 [27]: 283 nM
- TGI [27]: 3220 nM
- GI50 [28]: 285 nM
- TGI [28]: 1330 nM
